Where a SMILES comes first, the peptide text is derived from it.
What was measured:
[1] = tested on: GAPDH mRNA; experiment: GAPDH mRNA knockdown in HEK293 cells (RT-qPCR); assay type: cell-based
Method: (§1) These GAPDH siRNA-peptide conjugates were then evaluated in HEK293 cells and the neuronal cell line, neuro2A.

[2] = tested on: GAPDH mRNA; experiment: GAPDH mRNA knockdown in differentiated Neuro-2a cells (RT-qPCR); assay type: cell-based
Method: as §1

[3] = target: Cyno SORT1; experiment: SPR binding, Cyno SORT1; conditions: unconjugated peptide w/conjugation handles
Method: SPR analysis was performed on Series S CM5 chips (Cytiva) using a Biacore 8K instrument (Cytiva). Sensorgrams were double-referenced by subtracting the response on both a reference flow cell and a blank sample. Human SORT1 (78-755)-His (Acrobiosystems), human SORT1 (78-755)-His(GenScript), mouse SORT1 (76-753)-His (R&D Systems), rat SORT1 (76-752)-His (GenScript), and cyno SORT1 (76-753)-His (GenScript) were diluted to 20-60 μg/mL in 10 mM sodium acetate pH 4.5 buffer and immobilized onto Series S CM5 chips using amine coupling at a flow rate of 10 μL/min for 45-100 s.
For the single-cycle kinetics analysis runs, a running buffer of 1×PBS pH 7.4, 0.005% Tween-20 was used. Ten start-up cycles and a blank cycle preceded each analysis run. […] The kinetic rate constants (ka and kd) and the equilibrium binding constant (Kd) were calculated using a 1:1 kinetic binding model on the Biacore Insight Evaluation Software (Cytiva).
SPR analysis was performed on Series S CM5 chips (Cytiva) using a Biacore 8K instrument (Cytiva). […] The kinetic rate constants (ka and […]) and the equilibrium binding constant (Kd) were calculated using a 1:1 kinetic binding model on the Biacore Insight Evaluation Software (Cytiva). […] The SORT1 affinities of the conjugates were determined to be peptide 2 conjugate >peptide 1 conjugate >peptide 3 conjugate.

[4] = tested on: MDA-MB-231 xenograft; experiment: MDA-MB-231 murine xenograft efficacy model; assay type: in vivo, mouse
Method: Murine xenograft experiments were conducted at WuXi AppTec and/or Charles River Laboratories and the care and use of animals was conducted in accordance with the regulations of the Association for Assessment and Accreditation of Laboratory Animal Care (AAALAC). MDA-MB-231 tumor cells (ATCC, Manassas, VA, cat #HTB-26) were grown and maintained in L15 medium supplemented with 10% heat inactivated fetal bovine serum, 1% Antibiotic-Antimycotic, and L-glutamine (2 mM) at 37° C. in an atmosphere in 5% CO2, 95% air. BALB/c Nude, female, 6-8 weeks, weighing approximately 18-22 g were purchased from Vital River Laboratory Animal Technology Co., LTD. Mice were inoculated subcutaneously at the right flank with MDA-MB-231 tumor cells (e.g., triple negative breast cancer cells) (10×10^6) in 0.2 mL of PBS with Matrigel (1:1) for tumor development. Animals were randomized and treatment was started when the average tumor volume reached approximately 150-200 mm^3 for the efficacy study. Dosing volume was adjusted based on body weight and was administered at 10 mL/Kg. […] Free MMAE payload was also tested, and similarly dissolved in 25 mM Histidine 10% sucrose pH 7 and one or more of the following doses, 0.6, 0.06 mg/kg, were administered to the mice i.v. at a QW×4 schedule. Tumor sizes were measured twice weekly in two dimensions using a caliper, and the volume in mm^3 calculated using the formula: V=0.5 a×b^2, where a and b are the long and short diameters of the tumor, respectively. TGI was calculated for each group using the formula: TGI (%)=[1−(Ti−T0)/(Vi−V0)]×100; where Ti is the average tumor volume of a treatment group on a given day, TO is the average tumor volume of the treatment group on the first day of treatment, Vi is the average tumor volume of the vehicle control group on the same day with Ti, and V0 is the average tumor volume of the vehicle group on the first day of treatment.
To characterize the effects of the MMAE payload alone, we included free MMAE at molar equivalency to PDCs, and tested at 0.6 and 0.06 mg/kg, as separate arms.
To characterize the effects of the MMAE payload alone, we included free MMAE at molar equivalency to PDCs, and tested at 0.6 mg/kg.

[5] = Murine hematotoxicity assay; assay type: in vivo, mouse; conditions: 3 mg/kg i.v. QW×4, BALB/c mice
Method: (§2) Murine hematotoxicity experiments were conducted at Charles River Laboratories and the care and use of animals was conducted in accordance with the regulations of the Association for Assessment and Accreditation of Laboratory Animal Care (AAALAC). Wild type BALB/c, female, 7-8 weeks, weighing approximately 18-22 g were randomized and dosed intravenously with control or test articles at a QW×4 schedule. Dosing volume was adjusted based on body weight and was administered at 10 mL/Kg. PDCs were dissolved in 25 mM Histidine 10% sucrose pH 7 and 3 mg/kg was administered. Free MMAE payload was also tested, and similarly dissolved in 25 mM Histidine 10% sucrose pH 7 and administered to the mice at a dose of […] by i.v. injection at a QW×4 schedule. 3 days following each dose, 150 μL of whole blood was collected via submandibular method and placed in K2 EDTA tubes stored on ice. Blood neutrophil counts were performed on the day of collection by IDEXX labs. Body weights were recorded twice a week until study endpoint.
as §2, with “As outlined in the material” for “Murine hematotoxicity experiments were conducted at Charles River Laboratories”, “methods” for “the care and use”, “Example 1, wild” for “animals was conducted in accordance with the regulations of the Association for Assessment and Accreditation of Laboratory Animal Care (AAALAC). Wild”, “PDCs were dissolved in 25 mM Histidine 10% sucrose pH 7 and 3 mg/kg was administered.” left out

[6] = Murine plasma stability assay; assay type: in vitro ADME; conditions: mouse, 2 μM, 37° C., read-out: Murine plasma stability assay, T1/2
Method: Frozen plasma was thawed at 37° C. and centrifuged at 4000 rpm to remove any clots and transferred to 96-well reaction plates by WuXi AppTec. Test compounds were added to the reaction plate at a final concentration of 2 μM and either stopped immediately or incubated at 37° C. for 5 minutes, 10 minutes, 30 minutes, 60 minutes, or 120 minutes. At the end of incubation, stop solution consisting of 200 ng/mL tolbutamide and 200 ng/mL labetalol in ACN was added to precipitate protein and mixed thoroughly. Samples were then transferred to a bioanalysis plate and shaken for 10 minutes prior to HPLC-MS/MS analysis of percent remaining compound.
Table 14 tabulates the plasma stability for each of the three PDCs tested.

[7] = target: T1, SORT1 (Sortilin), Acrobiosystems SON-H52H5 (human, UniProt Q99523 78-755, biotinylated 1:1 with NHS-PEG4 Biotin when immobilised in the protein-loaded GCI format); experiment: fluorescence polarization, direct titration of the FAM-labelled peptide with SORT1
T1 construct: Used in FP, GCI and the peptide microarray; also called SORT1-Ag; SORT1 antigen
T1 sequence (looked up): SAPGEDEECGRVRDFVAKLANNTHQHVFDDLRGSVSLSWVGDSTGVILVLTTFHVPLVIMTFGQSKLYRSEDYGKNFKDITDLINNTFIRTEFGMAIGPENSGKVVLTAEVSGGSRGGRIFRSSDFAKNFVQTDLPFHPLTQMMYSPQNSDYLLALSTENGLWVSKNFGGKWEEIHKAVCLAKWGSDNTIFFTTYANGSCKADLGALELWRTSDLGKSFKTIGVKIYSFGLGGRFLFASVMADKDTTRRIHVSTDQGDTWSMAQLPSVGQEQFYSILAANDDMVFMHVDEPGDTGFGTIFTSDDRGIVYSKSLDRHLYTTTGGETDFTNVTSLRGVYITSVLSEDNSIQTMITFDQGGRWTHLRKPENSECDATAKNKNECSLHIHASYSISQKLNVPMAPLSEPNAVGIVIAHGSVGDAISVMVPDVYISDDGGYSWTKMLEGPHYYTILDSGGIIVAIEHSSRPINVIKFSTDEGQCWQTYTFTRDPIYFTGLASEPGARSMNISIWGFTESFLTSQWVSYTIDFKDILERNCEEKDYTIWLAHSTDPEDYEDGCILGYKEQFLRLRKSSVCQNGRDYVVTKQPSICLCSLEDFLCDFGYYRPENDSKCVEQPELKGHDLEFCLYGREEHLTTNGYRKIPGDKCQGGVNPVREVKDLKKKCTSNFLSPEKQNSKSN

In the case of “Ac-C(bAla)(Sar)(Sar)(Sar)(Sar)APRWDAPLRDPALRQ(B13)(G48) (CXXXXXAPRWDAPLRDPALRQXX; N-methyl; non-natural residues; cyclised or stapled) [Peptide 2-GAPDH6-SPDP]”, the “GAPDH mRNA % knockdown compared to untreated cells” value (from here on “GAPDH mRNA % knockdown”) ([1]; HEK293 + CQ) is reported as 80%, the “GAPDH mRNA % knockdown” value ([1]; HEK293 − CQ (chloroquine)) is reported as 0% and the “GAPDH mRNA % knockdown” value ([2]; Neuro2a + CQ) is reported as 0%. The “GAPDH mRNA % knockdown” value ([2]; Neuro2a − CQ) was 3%.

In the case of `CCCC[C@@H]1NC(=O)[C@H](CCCNC(=N)N)NC(=O)[C@H](CCCCN)NC(=O)[C@H](CC(N)=O)NC(=O)[C@H](CCC(=O)O)NC(=O)[C@@H](NC(=O)[C@H](Cc2c[nH]c3ccccc23)NC(=O)[C@H](CCCNC(=N)N)NC(C)=O)CSSC[C@@H](C(=O)N[C@@H](CCCNC(=N)N)C(=O)N[C@@H](CCC(N)=O)C(=O)N[C@H](C(=O)N[C@@H](CC(C)(C)C)C(=O)O)C(C)(C)C)NC(=O)[C@H]([C@@H](C)O)NC(=O)[C@H](Cc2ccccc2)NC1=O` [SORT1 peptide 3] (HELM PEPTIDE1{[ac].R.W.C.E.N.K.R.[Nle].F.T.C.R.Q.[CC(C)(C)[C@H](N[*:1])C(=O)[*:2]].[CC(C)(C)C[C@H](N[*:1])C(=O)O]}$PEPTIDE1,PEPTIDE1,4:R3-12:R3$$$V2.0; N-terminus and C-terminus assumed), the “Cyno Ka Kd” value [3] is reported as 0.191 nM.

For `CCCC[C@@H]1NC(=O)[C@H](CCCNC(=N)N)NC(=O)[C@H](CCCCNC(=O)CN(C)C(=O)CN(C)C(=O)CN(C)C(=O)CN(C)C(=O)CCNC(=O)CCCC(=O)N[C@H](C(=O)N[C@@H](CCCNC(N)=O)C(=O)Nc2ccc(COC(=O)N(C)[C@H](C(=O)N[C@H](C(=O)N(C)[C@@H]([C@@H](C)CC)[C@@H](CC(=O)N3CCC[C@H]3[C@H](OC)[C@@H](C)C(=O)N[C@H](C)[C@@H](O)c3ccccc3)OC)C(C)C)C(C)C)cc2)C(C)C)NC(=O)[C@H](CC(N)=O)NC(=O)[C@H](CCC(=O)O)NC(=O)[C@@H](NC(=O)[C@H](Cc2c[nH]c3ccccc23)NC(=O)[C@H](CCCNC(=N)N)NC(C)=O)CSSC[C@@H](C(=O)N[C@@H](CCCNC(=N)N)C(=O)N[C@@H](CCC(N)=O)C(=O)N[C@H](C(=O)N[C@@H](CC(C)(C)C)C(=O)O)C(C)(C)C)NC(=O)[C@H]([C@@H](C)O)NC(=O)[C@H](Cc2ccccc2)NC1=O` [Arb_cyclic_G23-PDC], the “tumor growth inhibited relative to vehicle” value ([4]; 3 mg/kg i.v. QW×4, day 22) was 68%, the “body weight loss (Example 8)” value ([4]; PDCs 3 mg/kg, free MMAE at molar equivalency (0.6 mg/kg)) was “body weight loss tracked each other” and the “blood neutrophil counts compared to vehicle or MMAE treatment” value [5] was “reduced neutrophil counts”. It also gave a half-life [6] of 57.4 min.

In the case of `CC(C)C[C@H](NC(=O)[C@H](C)NC(=O)[C@@H]1CCCN1C(=O)[C@H](CC(=O)O)NC(=O)[C@H](CCCNC(=N)N)NC(=O)[C@H](CC(C)C)NC(=O)[C@@H]1CCCN1C(=O)[C@H](C)NC(=O)[C@H](CC(=O)O)NC(=O)[C@H](Cc1c[nH]c2ccccc12)NC(=O)[C@H](CCCNC(=N)N)NC(=O)[C@@H]1CCCN1C(=O)[C@H](C)N)C(=O)N[C@@H](CCCNC(=N)N)C(=O)N[C@@H](CCC(N)=O)C(=O)N[C@H](C(=O)N[C@@H](CC1CCC1)C(=O)O)C(C)(C)C` [SORT1 peptide 2], the “Cyno Ka Kd” value [3] is reported as 0.152 nM.

B1: PRGN_scr (peptide)
peptide: {FAM}-QRLARLPRDLLAWPPAD-OH
notes: also called negative control peptide
B1: no binding [7].

From patent publication US20260183411A1, “TARGETING SORTILIN” (priority 2024, published 2026)
